Measured values: ChEMBL document CHEMBL1201862, “PubChem BioAssay data set” (2004)
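All cell lines were grown in 96-well plates and treated with compound for 48 hours. GI50 = concentration required for 50% inhibition of growth.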 Calls of active or inactive are those of the source. No stated cut-off is given here; in the data, active = GI50 up to about 1.1 µM and inactive = higher.

Experiments:
Assay in all cases: NCI-60 cell line screen, 48 h
NCI-H226 = test system: NCI-H226
Malme-3M = test system: Malme-3M
KM12 = test system: KM12
HCT-116 = test system: HCT-116
HCC 2998 = test system: HCC 2998
HOP-92 = test system: HOP-92
SK-MEL-5 = test system: SK-MEL-5
ACHN = test system: ACHN
A549 = test system: A549
TK-10 = test system: TK-10
SN12C = test system: SN12C
SF-539 = test system: SF-539
MOLT-4 = test system: MOLT-4
UACC-257 = test system: UACC-257
SNB-75 = test system: SNB-75
NCI-H23 = test system: NCI-H23
EKVX = test system: EKVX

Measured: GI50

CC(C)=CCC/C(C)=C/Cc1c(O)ccc2c1[nH]c1cc(O)c(C)cc12
inactive: NCI-H226 15.6 µM | Malme-3M 13.6 µM | KM12 10.6 µM | HCT-116 13.3 µM | HCC 2998 11 µM | HOP-92 > 25 µM | SK-MEL-5 16.6 µM | ACHN 8.85 µM | A549 8.87 µM | TK-10 > 25 µM | SN12C 14.6 µM | SF-539 6.95 µM | MOLT-4 6.07 µM

COc1cc(O)c(C(=O)C2Cc3ccccc32)c(OC)c1 (stereo not given)
inactive: NCI-H226 22.6 µM | Malme-3M 35.8 µM | UACC-257 47.3 µM | KM12 32.4 µM | HCT-116 38.6 µM | HCC 2998 49.1 µM | HOP-92 35.9 µM | SNB-75 37.7 µM | SK-MEL-5 29.6 µM | ACHN 50.7 µM | A549 35.8 µM | TK-10 > 100 µM | SN12C 46.5 µM | SF-539 > 100 µM | MOLT-4 16.9 µM

Cc1nc(-c2ccccc2)cc2c1c(=O)oc1ccccc12
inactive: NCI-H226 > 100 µM | Malme-3M > 100 µM | UACC-257 > 100 µM | KM12 > 100 µM | HCT-116 > 100 µM | HCC 2998 > 100 µM | HOP-92 > 100 µM | SNB-75 83.4 µM | SK-MEL-5 > 100 µM | ACHN > 100 µM | NCI-H23 > 100 µM | EKVX > 100 µM | A549 > 100 µM | SN12C > 100 µM | SF-539 > 100 µM | MOLT-4 > 100 µM

CCCCCCCC(=O)OCC1OC(n2cc(F)c(=O)[nH]c2=O)C(N)C(OC(=O)CCCCCCC)C1O (stereo not given)
inactive: Malme-3M 17.5 µM | UACC-257 17.8 µM | KM12 21.2 µM | HCT-116 19.5 µM | HCC 2998 16.5 µM | HOP-92 18.4 µM | SNB-75 15 µM | SK-MEL-5 10.5 µM | ACHN 20.2 µM | NCI-H23 20.1 µM | EKVX 19.1 µM | A549 18.3 µM | TK-10 23.4 µM | SN12C 17.5 µM | SF-539 20.5 µM | MOLT-4 15.5 µM

Cc1nc(C(=O)O)c2ccccc2n1
inactive: Malme-3M > 100 µM | UACC-257 > 100 µM | KM12 > 100 µM | HCT-116 > 100 µM | HCC 2998 > 100 µM | HOP-92 > 100 µM | SNB-75 > 100 µM | SK-MEL-5 > 100 µM | ACHN > 100 µM | NCI-H23 > 100 µM | A549 > 100 µM | TK-10 > 100 µM | SN12C > 100 µM | SF-539 > 100 µM | MOLT-4 > 100 µM

O=C1OC(CC(=O)c2ccc(Cl)c(Cl)c2)C(Cl)=C1Cl (stereo not given)
inactive: NCI-H226 68.9 µM | Malme-3M > 100 µM | UACC-257 > 100 µM | KM12 > 100 µM | HCC 2998 > 100 µM | SNB-75 > 100 µM | SK-MEL-5 > 100 µM | ACHN > 100 µM | NCI-H23 > 100 µM | EKVX > 100 µM | A549 > 100 µM | TK-10 > 100 µM | SN12C > 100 µM | SF-539 74.5 µM | MOLT-4 38.7 µM

CC/C=C/c1cc2c(c3[nH]ccc13)[C@@H](C)CC2C.CC/C=C/c1cc2cc[nH]c2c2c1C(C)C[C@@H]2C.CCc1cc2c(c3[nH]ccc13)[C@@H](C)CC2C (stereo not given in full)
inactive: NCI-H226 15.2 µM | Malme-3M 20.2 µM | UACC-257 16 µM | KM12 16.8 µM | HCT-116 18.5 µM | HCC 2998 3.08 µM | SNB-75 10 µM | ACHN 16.2 µM | NCI-H23 17.4 µM | EKVX 18.4 µM | A549 21.4 µM | TK-10 22.1 µM | SN12C 15.1 µM | SF-539 16.1 µM

CCOC(=O)C(C)Sc1nnc(COc2ccccc2OC)n1-c1ccccc1 (stereo not given)
inactive: NCI-H226 > 100 µM | Malme-3M > 100 µM | UACC-257 > 100 µM | KM12 > 100 µM | HCT-116 80.7 µM | HCC 2998 29.1 µM | HOP-92 49.1 µM | SNB-75 > 100 µM | SK-MEL-5 > 100 µM | ACHN > 100 µM | NCI-H23 > 100 µM | EKVX > 100 µM | A549 > 100 µM | TK-10 > 100 µM | SN12C > 100 µM | SF-539 > 100 µM

Cc1ncc(CCl)c2c1OC(C)(C)OC2
inactive: NCI-H226 > 100 µM | Malme-3M 19.2 µM | UACC-257 77.1 µM | KM12 37.5 µM | HCT-116 25.1 µM | HCC 2998 > 100 µM | HOP-92 32.2 µM | ACHN 21.3 µM | NCI-H23 > 100 µM | EKVX 20.5 µM | A549 > 100 µM | TK-10 > 100 µM | SN12C 35.6 µM | SF-539 33.6 µM | MOLT-4 42.5 µM
